Consider 16 molecules from EPA's ToxValDB 9.5.

The series concerns Rattus norvegicus. The conditions noted are these: for LD50 / LC50: acute.
[1] abbreviates: reproduction developmental, duration: 7 days, oral, gavage, F, CD Strain from Charles River.
Where [2] appears, read: reproduction developmental, duration: 24 weeks, inhalation, generation: F0.
Setting [3] is: reproduction developmental, duration: 24 weeks, inhalation, generation: F1.
Setting [4] is: reproduction developmental, duration: 10 days, oral, gavage, F.
The mark [5] stands for this setting: short-term, duration: 12 days, inhalation, F, Fischer 344.
Where [6] appears, read: short-term, duration: 12 days, inhalation, M, Fischer 344.
Setting [7] is: short-term, duration: 14 days, oral, gavage, F, Crj:CD(SD).
Setting [8] is: short-term, duration: 14 days, oral, gavage, M, Crj:CD(SD).
Where [9] appears, read: subchronic, duration: 13 weeks, inhalation, F, Fischer 344.
The mark [10] stands for this setting: subchronic, duration: 13 weeks, inhalation, M, Fischer 344.
Where [11] appears, read: subchronic, duration: 90 days, oral, diet.

Structures are written as SMILES. In brackets after ≈: the same amount, converted by molar mass. Several values for one entry are separate records, joined by “and”; a condition that tells them apart may be missing. Identical values can stand only once. A value given as a limit tells only on which side of the number the result lay.

One may read the LD50 as the dose at which mortality reaches 50%. Low readings indicate greater toxicity, high ones lower toxicity. With `CC(C)N.CCCCCCCCCC(CC)c1ccc(S(=O)(=O)O)cc1` (stereo not drawn) [Isopropylammonium dodecylbenzenesulfonate], the LD50 was found to be 1840 mg/kg (oral) and 1300 mg/kg (oral, gavage, Sprague-Dawley).

What is called NOAEL is the highest tested level that showed no adverse finding. With `OP(O)c1ccccc1` [Phenylphosphinic acid], the LD50 (oral, gavage) is 1470 mg/kg and 1710 mg/kg. This molecule also gave a no observed adverse effect level (NOAEL) (subchronic, duration: 31 days, oral, diet) of 960 mg/kg-day.

For `O=P(CCCl)(OCCCl)OCCCl` [Bis(2-chloroethyl) 2-chloroethylphosphonate], the LD50 (oral, gavage, Sprague-Dawley) is 580 mg/kg and 810 mg/kg. The NOAEL was ≤ 600 mg/kg-day (developmental, duration: 14 days, oral, gavage, Sprague-Dawley) and 400 mg/kg-day (reproduction developmental, duration: 14 days, oral, gavage, F, Sprague-Dawley).

Turning to `CCCCCCC(C)(C)C(=O)OCC1CO1` (stereo not drawn) [Glycidyl neodecanoate], the LD50 (dermal, Wistar) was > 4000 mg/kg and the LD50 (oral, gavage, Wistar) is > 10000 mg/kg.

For the molecule `CC(C)CCCCCCCOC(=O)CCCCCCCC(=O)OCCCCCCCC(C)C` [Diisodecyl azelaate], the LD50 (oral, gavage, Wistar) is > 2000 mg/kg.

The term LC50 denotes the concentration that kills 50% of the test population. Read a low LC50 as greater toxicity. What is called LOAEL is the lowest tested level that showed an adverse finding. Regarding `NCCCCCCN` [1,6-Hexanediamine], the LC50 (inhalation, Crl) was > 0.95 µg/mL. Moreover, the LD50 (oral, gavage, Crl:CD(SD)) was 1130 mg/kg and 792 mg/kg. The LOAEL by setting is: (developmental, duration: 7 days, oral, gavage, CD Strain from Charles River) 184 mg/kg-day; under setting [1], 184 mg/kg-day. Besides, the NOAEL (reproduction developmental, duration: 40 weeks, oral, diet, Charles River COBS CD, Portage Michigan) came to 150 mg/kg-day; the NOAEL under setting [1] came to 112 mg/kg-day; the NOAEL (subchronic, duration: 13 weeks, Inhalation, Crl:CD(SD)) worked out at 12.8 mg/m3.

`C1COCO1` [1,3-Dioxolane] came in with an LC50 (inhalation, Crl:CD1) of 68.4 µg/mL (≈ 923 µM). This molecule also gave an LD50 (oral, gavage, Sprague-Dawley) of 5200 mg/kg. Besides, the lowest-observed-adverse-effect level (LOAEL) (developmental, duration: 10 days, oral, gavage) came to 1000 mg/kg-day; the LOAEL under setting [2] is > 379 mg/m3; the LOAEL under setting [3] was > 379 mg/m3; the LOAEL under setting [4] came to 500 mg/kg-day; the LOAEL under setting [5] was found to be 7030 mg/m3; the LOAEL under setting [6] was found to be 7030 mg/m3. Besides, the LOAEL by setting is: under setting [7], 250 mg/kg-day; under setting [8], 250 mg/kg-day; under setting [9], 3030 mg/m3; under setting [10], 9120 mg/m3. Further, the NOAEL is, setting by setting: under setting [2], 379 mg/m3; under setting [3], 379 mg/m3; under setting [4], 250 mg/kg-day; under setting [5], 1560 mg/m3; under setting [6], 1560 mg/m3; under setting [7], 75 mg/kg-day. The NOAEL is, setting by setting: under setting [8], 75 mg/kg-day; under setting [9], 903 mg/m3; under setting [10], 3030 mg/m3.

For `CCCCCCC([O-])CCCCCCCCCCC(=O)OC.[Li+]` (stereo not drawn) [Lithium methyl 12-hydroxystearate], the NOAEL is > 2000 mg/kg-day (reproduction developmental, duration: 0 days, dermal, non-occlusive, F, Sprague-Dawley); < 500 mg/kg-day (reproduction developmental, duration: 10 weeks, dermal, non-occlusive, M, Fischer 344); 500 mg/kg-day (subchronic, duration: 13 weeks, dermal, non-occlusive, F, Sprague-Dawley).

Turning to `CC(C)(C)c1cc(CCC(=O)NNC(=O)CCc2cc(C(C)(C)C)c(O)c(C(C)(C)C)c2)cc(C(C)(C)C)c1O`, the LD50 (oral) is > 7000 mg/kg. The NOAEL is, setting by setting: (short-term, duration: 28 days, oral, diet) > 10000 ppm; (subchronic, duration: 3 months, oral, diet) 38.4 mg/kg-day.

`Clc1nc(Cl)c(Cl)c(Cl)c1Cl` [Pentachloropyridine] registered a median lethal dose (LD50) (oral, gavage, Fischer 344) of 435 mg/kg. The NOAEL worked out at 50 mg/kg-day (reproduction developmental, duration: 15 days, oral, gavage, F, Sprague-Dawley) and 10 mg/kg-day under setting [11]. This molecule had an LOAEL under setting [11] of 30 mg/kg-day.

`CC(=O)O.CC(C)CCCCCCCOCCCN` [1-Propanamine, 3-(isodecyloxy)-, acetate]: under “oral, gavage, Sprague-Dawley”, the LD50 was 1030 mg/kg and 1460 mg/kg and 1220 mg/kg.

As to `CC(C)(CO)CO` [2,2-Dimethylpropane-1,3-diol], the LD50 (oral) turned out to be 3200 mg/kg. The same molecule displayed an NOAEL (reproduction developmental, oral, Sprague-Dawley, generation: F0) of 1000 mg/kg-day; an NOAEL (reproduction developmental, oral, Sprague-Dawley, generation: F1) of 1000 mg/kg-day; an NOAEL (reproduction developmental, oral, gavage, Sprague-Dawley) of 100 mg/kg-day; an NOAEL (short-term, duration: 2 weeks, oral, gavage, Wistar) of 1000 mg/kg-day.

As to `O=[N+]([O-])c1ccc(C=Cc2ccc([N+](=O)[O-])cc2S(=O)(=O)[O-])c(S(=O)(=O)[O-])c1.[Na+].[Na+]` [Disodium 4,4'-dinitro-2,2'-stilbenedisulfonate], the LD50 (oral) was > 16000 mg/kg.

For `O=C(O)c1cccc(C(=O)O)c1` [1,3-Benzenedicarboxylic acid], the NOAEL (developmental, duration: 10 days, Inhalation, Sprague-Dawley) was > 10 mg/m3.

Take `O=S(=O)([O-])CCO.[Na+]` [Sodium 2-hydroxyethanesulfonate]: where the note is “oral, gavage, Wistar”, the LD50 is > 5000 mg/kg.

Turning to `CCCCCCCC/C=C\CCCCCCCC(=O)OC[C@@H](OC(=O)CCCCCCC/C=C\CCCCCCCC)[C@H]1OC[C@H](O)[C@H]1OC(=O)CCCCCCC/C=C\CCCCCCCC` [Sorbitan trioleate], the LD50 (oral, gavage, Wistar) was > 39800 mg/kg.
